Experimental data from patent publication US20230212549A1, “COMPOUNDS COMPRISING A […] LIGAND AND USE THEREOF” (priority 2021, published 2023).
Numbered stars: 1 amine (or outer) side, 2 acyl side, 3 side chain; on linkers, the order of the positions; unused ones are H or OH. Bridge positions count the residues as written; N and C are the ends. Square brackets hold non-standard residues; d marks the D form. Peptide text beside a SMILES is read from it. * marks the point of attachment. ξ: configuration not given here. X13 = O=C(O)CN1CCN(CC(=O)O)CCN(CC(=O)N2CCN(Cc3cc(C[*:1])cc(C[*:2])c3)CC2)CCN(CC(=O)O)CC1; X11 = O=C(O)CN1CCN(CC(=O)O)CCN(C(CCC(=O)NCCSCc2cc(C[*:1])cc(C[*:2])c2)C(=O)O)CC1; X32 = O=C(O)CN1CCN(CC(=O)O)CCN(CC(=O)NCc2cc(C[*:1])cc(C[*:2])c2)CCN(CC(=O)O)CC1; Phe(2-Cl) = N[C@@H](Cc1ccccc1Cl)C(=O)O; mXylylene = c1cc(C[*:1])cc(C[*:2])c1; Pyrazinecarbonyl = O=C(c1cnccn1)*; NMeF = CN[C@@H](Cc1ccccc1)C(=O)O; 2Thi = N[C@@H](Cc1cccs1)C(=O)O; Nphe = O=C(O)CNCc1ccccc1; Orn = NCCC[C@H](N)C(=O)O; Hexanoyl = CCCCCC(=O)*; CO = O=C([*:1])[*:2]; ξC = NC(CS)C(=O)O; NHBu = CCCCN*

Key:
Human recombinant FAP = Human recombinant FAP (Homo sapiens, UniProt Q12884); experiment: FRET-based FAP protease activity assay; type: biochemical; parameters: purchased R&D systems 3715-SE
Chain of Human recombinant FAP (Q12884 whole entry): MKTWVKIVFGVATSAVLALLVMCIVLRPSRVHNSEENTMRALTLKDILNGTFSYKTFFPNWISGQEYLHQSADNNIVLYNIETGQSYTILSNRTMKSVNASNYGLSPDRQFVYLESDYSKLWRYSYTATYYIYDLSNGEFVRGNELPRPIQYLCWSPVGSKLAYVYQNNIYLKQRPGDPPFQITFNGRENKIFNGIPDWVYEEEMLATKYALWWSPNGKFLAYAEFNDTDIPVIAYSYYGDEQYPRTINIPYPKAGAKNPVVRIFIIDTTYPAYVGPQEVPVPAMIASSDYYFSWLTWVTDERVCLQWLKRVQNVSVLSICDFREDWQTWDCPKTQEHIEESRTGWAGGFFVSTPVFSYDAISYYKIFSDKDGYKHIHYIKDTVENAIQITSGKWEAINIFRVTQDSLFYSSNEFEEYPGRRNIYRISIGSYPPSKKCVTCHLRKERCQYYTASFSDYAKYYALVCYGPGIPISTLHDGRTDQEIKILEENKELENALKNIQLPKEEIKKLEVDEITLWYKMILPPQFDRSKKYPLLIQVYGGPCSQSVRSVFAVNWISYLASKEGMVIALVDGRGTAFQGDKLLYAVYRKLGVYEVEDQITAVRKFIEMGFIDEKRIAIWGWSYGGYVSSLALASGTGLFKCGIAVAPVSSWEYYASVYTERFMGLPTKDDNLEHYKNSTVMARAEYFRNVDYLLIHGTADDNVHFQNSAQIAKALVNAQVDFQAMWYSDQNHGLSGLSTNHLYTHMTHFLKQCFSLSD

[1] = target: T1, FAP-expressing human WI-38 fibroblasts (Homo sapiens, UniProt Q12884); experiment: Competitive FACS binding assay
T1 construct: FAP-expressing human WI-38 fibroblasts (ECACC) were cultured in EMEM; host or cells: WI-38 human fibroblasts
T1 sequence (Q12884 whole entry): as above
Method: Cells were analyzed in an Attune NxT flow cytometer. […] […].
Cells were analyzed in an Attune NxT flow cytometer. […]

in vivo = settings: female, athymic nude, mouse, iv, ^68Ga-labeled, PET/CT; for tissue uptake at 0.25 h: 0.25 h post tracer injection; for tissue uptake at 1 h: 1 h post tracer injection; for tissue uptake at 3 h: 3 h post tracer injection
[2] = pIC50 Category (activity), Recombinant human FAP
[3] = pIC50 Category (Activity), FRET-based FAP protease activity assay, recombinant human FAP, 37° C.
[4] = pIC50 Category (Activity), FRET-peptide substrate, 37° C.

| SMILES | IC50 [1] | IC50 (Human recombinant FAP; [3]) | also measured |
| --- | --- | --- | --- |
| CCCCNC(=O)N[C@H]1CSCc2cc(CSCCNC(=O)CCC(C(=O)O)N3CCN(CC(=O)O)CCN(CC(=O)O)CC3)cc(c2)CSCC(C(=O)O)NC(=O)[C@H](Cc2ccccc2)NC(=O)[C@H](CCC(=O)O)NC(=O)[C@H]([C@@H](C)O)NC(=O)[C@@H]2CCCN2C(=O)[C@@H]2CCCN2C1=O (stereo partly drawn) [3BP-4724, nBu-CAyl-[Cys(tMeBn(NODAGA-AET))-Pro-Pro-Thr-Glu-Phe-Cys]-OH] ({NHBu-CO}-CPPTEF[ξC]-OH; linker 1-7 via X11) | < 0.01 µM |  | IC50 (Human recombinant FAP; [2]): 0.01 to 0.0794 µM; tissue uptake at 0.25 h (in vivo; blood pool surrogate (BPS), uptake BPS 0.25 h, BPS (blood pool surrogate)): 2.17 %ID/g; tissue uptake at 1 h (in vivo; blood pool surrogate (BPS), uptake BPS 1 h, BPS (blood pool surrogate)): 1.04 %ID/g; tissue uptake at 3 h (in vivo; blood pool surrogate (BPS), uptake BPS 3 h, BPS (blood pool surrogate)): 0.49 %ID/g; tissue uptake at 0.25 h (in vivo; kidneys, uptake Kidneys 0.25 h): 4.28 %ID/g; tissue uptake at 1 h (in vivo; kidneys, uptake Kidneys 1 h): 1.87 %ID/g; tissue uptake at 3 h (in vivo; kidneys, uptake Kidneys 3 h): 0.86 %ID/g; tissue uptake at 0.25 h (in vivo; tumor, uptake Tumor 0.25 h, HEK-FAP tumor): 3.87 %ID/g; tissue uptake at 1 h (in vivo; tumor, uptake Tumor 1 h, HEK-FAP tumor): 4.37 %ID/g; tissue uptake at 3 h (in vivo; tumor, uptake Tumor 3 h, HEK-FAP tumor): 4.46 %ID/g |
| CCCCCC(=O)N[C@H]1CSCc2cccc(c2)CSC[C@@H](C(N)=O)NC(=O)[C@H](Cc2ccccc2)NC(=O)[C@H](CCC(=O)O)NC(=O)[C@H](CCCNC(=O)c2cnccn2)NC(=O)[C@@H]2CCCN2C(=O)[C@@H]2CCCN2C1=O [3BP-3355, Hex-[Cys(3MeBn)-Pro-Pro-Opc-Glu-Phe-Cys]-NH2] (Hexanoyl-CPP[Orn](Pyrazinecarbonyl)EFC-NH2; linker 1-7 via mXylylene) | > 1 µM | 0.1 to 0.794 µM |  |
| CCCCCC(=O)N[C@H]1CSCc2cccc(c2)CSC[C@@H](C(N)=O)NC(=O)[C@H](Cc2ccccc2Cl)NC(=O)[C@H](CCC(=O)O)NC(=O)[C@H]([C@@H](C)O)NC(=O)[C@@H]2CCCN2C(=O)[C@@H]2CCCN2C1=O [3BP-3368, Hex-[Cys(3MeBn)-Pro-Pro-Thr-Glu-Ocf-Cys]-NH2] (Hexanoyl-CPPTE[Phe(2-Cl)]C-NH2; linker 1-7 via mXylylene) | 0.1 to 0.794 µM | 0.01 to 0.0794 µM |  |
| CCCC[C@H](NC(=O)CCC(=O)NCCCOCCOCCOCCCNC(=O)CC[C@H](NC(=O)C(CNCCN)CNCCN)C(=O)O)C(=O)N[C@H]1CSCc2cccc(c2)CSC[C@@H](C(=O)O)NC(=O)[C@H](Cc2ccccc2)NC(=O)[C@H](CCC(N)=O)NC(=O)[C@H]([C@@H](C)O)NC(=O)[C@@H]2CCCN2C(=O)[C@@H]2CCCN2C1=O [3BP-4245, N4Ac-gGlu-Ttds-Nle-[Cys-(3MeBn)-Pro-Pro-Thr-Gln-Phe-Cys]-OH] | 0.01 to 0.0794 µM |  | IC50 (Human recombinant FAP; [4]): 0.01 to 0.0794 µM |
| CCCCCC(=O)N[C@H]1CSCc2cc(CSCCNC(=O)CN3CCN(CC(=O)O)CCN(CC(N)=O)CCN(CC(=O)O)CC3)cc(c2)CSCC(C(=O)O)NC(=O)[C@H](Cc2ccccc2)NC(=O)[C@H](CCC(N)=O)NC(=O)[C@H]([C@@H](C)O)NC(=O)[C@@H]2CCCN2C(=O)[C@@H]2CCCN2C1=O (stereo partly drawn) [3BP-5288, Hex-[Cys(tMeBn(LSC-AET))-Pro-Pro-Thr-Gln-Phe-Cys]-OH] | < 0.01 µM |  | IC50 (Human recombinant FAP; [2]): < 0.01 µM |
| CCCCCC(=O)N[C@H]1CSCc2cc(CSCCNC(=O)CCP(=O)(O)CN3CCN(CP(=O)(O)CO)CCN(CP(=O)(O)CO)CC3)cc(c2)CSCC(C(N)=O)NC(=O)[C@H](Cc2ccccc2)NC(=O)[C@H](CCC(N)=O)NC(=O)[C@H]([C@@H](C)O)NC(=O)[C@@H]2CCCN2C(=O)[C@@H]2CCCN2C1=O (stereo partly drawn) [3BP-4729, Hex-[Cys(tMeBn(NOPO-AET))-Pro-Pro-Thr-Gln-Phe-Cys]-NH2] | < 0.01 µM |  | IC50 (Human recombinant FAP; [2]): < 0.01 µM |
| CCCCCC(=O)N[C@H]1CSCc2cc(cc(CN3CCN(C(=O)CN4CCN(CC(=O)O)CCN(CC(=O)O)CCN(CC(=O)O)CC4)CC3)c2)CSC[C@@H](C(=O)N[C@@H](CC(=O)O)C(N)=O)NC(=O)[C@@H]2CCCN2C(=O)[C@@H]2CCCN2C(=O)[C@H]([C@@H](C)O)NC(=O)[C@H](CCC(N)=O)NC(=O)[C@H](Cc2ccccc2)NC1=O [3BP-3855, Hex-[Cys(tMeBn(DOTA-PP))-Phe-Gln-Thr-Pro-Pro-Cys]-Asp-NH2] (Hexanoyl-CFQTPPCD-NH2; linker 1-7 via X13) | > 1 µM | > 1 µM |  |
| CCCCCC(=O)N[C@H]1CSCc2cc(CSCCNC(=O)CCC(C(=O)O)N3CCN(CC(=O)O)CCN(CC(=O)O)CC3)cc(c2)CSCC(C(=O)O)NC(=O)[C@H](Cc2ccccc2)NC(=O)[C@H](CCC(=O)O)NC(=O)[C@H]([C@@H](C)O)NC(=O)[C@@H]2CCCN2C(=O)[C@@H]2CCCN2C1=O (stereo partly drawn) [3BP-4695, Hex-[Cys(tMeBn(NODAGA-AET))-Pro-Pro-Thr-Glu-Phe-Cys]-OH] (Hexanoyl-CPPTEF[ξC]-OH; linker 1-7 via X11) | 0.01 to 0.0794 µM |  | IC50 (Human recombinant FAP; [2]): 0.01 to 0.0794 µM |
| CCCCCC(=O)N[C@H]1CSCc2cccc(c2)CSC[C@@H](C(N)=O)NC(=O)[C@H](Cc2ccccc2)N(C)C(=O)[C@H](CCC(=O)O)NC(=O)[C@H]([C@@H](C)O)NC(=O)[C@@H]2CCCN2C(=O)[C@@H]2CCCN2C1=O [3BP-3358, Hex-[Cys(3MeBn)-Pro-Pro-Thr-Glu-Nmf-Cys]-NH2] (Hexanoyl-CPPTE[NMeF]C-NH2; linker 1-7 via mXylylene) | > 1 µM | 0.1 to 0.794 µM |  |
| CCCCNC(=O)N[C@H]1CSCc2cc(CSCCNC(=O)CCC(C(=O)O)N3CCN(CC(=O)O)CCN(CC(=O)O)CC3)cc(c2)CSCC(C(=O)O)NC(=O)[C@H](Cc2ccccc2)NC(=O)[C@H](CCC(N)=O)NC(=O)[C@H]([C@@H](C)O)NC(=O)[C@@H]2CCCN2C(=O)[C@@H]2CCCN2C1=O (stereo partly drawn) [3BP-4723, nBu-CAyl-[Cys(tMeBn(NODAGA-AET))-Pro-Pro-Thr-Gln-Phe-Cys]-OH] | < 0.01 µM |  | IC50 (Human recombinant FAP; [2]): < 0.01 µM |
| CCCCCC(=O)N[C@H]1CSCc2cc(CNC(=O)CN3CCN(CC(=O)O)CCN(CC(=O)O)CCN(CC(=O)O)CC3)cc(c2)CSC[C@@H](C(=O)N[C@@H](CC(=O)O)C(N)=O)NC(=O)[C@H](Cc2ccccc2)NC(=O)[C@H](CCC(N)=O)NC(=O)[C@H]([C@@H](C)O)NC(=O)[C@@H]2CCCN2C(=O)[C@@H]2CCCN2C1=O [3BP-3556, Hex-[Cys(tMeBn(DOTA-NH))-Pro-Pro-Thr-Gln-Phe-Cys]-Asp-NH2] (Hexanoyl-CPPTQFCD-NH2; linker 1-7 via X32) | 0.01 to 0.0794 µM | 0.01 to 0.0794 µM |  |
| C[C@@H](O)[C@@H]1NC(=O)[C@@H]2CCCN2C(=O)[C@@H]2CCCN2C(=O)[C@@H](NC(=O)C2CCCC2)CSCc2cc(CSCCNC(=O)CN3CCN(CC(=O)O)CCN(CC(=O)O)CCN(CC(=O)O)CC3)cc(c2)CSC[C@@H](C(=O)O)NC(=O)[C@H](Cc2ccccc2)NC(=O)[C@H](CCC(N)=O)NC1=O [3BP-3909, Cp-[Cys(tMeBn(DOTA-AET))-Pro-Pro-Thr-Gln-Phe-Cys]-OH] | 0.01 to 0.0794 µM |  | IC50 (Human recombinant FAP; [4]): 0.01 to 0.0794 µM |
| CSCC[C@H](NC(C)=O)C(=O)N[C@H]1CSCc2cccc(c2)CSC[C@@H](C(=O)N[C@@H](CC(=O)O)C(=O)N[C@@H](Cc2c[nH]cn2)C(=O)N[C@@H](Cc2ccccc2)C(=O)N[C@@H](CCCNC(=N)N)C(=O)N[C@@H](CC(=O)O)C(N)=O)NC(=O)[C@H](Cc2cccs2)NC(=O)[C@H](CCC(=O)O)NC(=O)[C@H]([C@@H](C)O)NC(=O)[C@@H]2CCCN2C(=O)[C@@H]2CCCN2C1=O [3BP-3193, Ac-Met-[Cys(3MeBn)-Pro-Pro-Thr-Glu-Thi-Cys]-Asp-His-Phe-Arg-Asp-NH2] (Ac-MCPPTE[2Thi]CDHFRD-NH2; linker 2-8 via mXylylene) | < 0.01 µM | < 0.01 µM |  |
| C=CCCOC(=O)N[C@H]1CSCc2cc(CSCCNC(=O)CN3CCN(CC(=O)O)CCN(CC(=O)O)CCN(CC(=O)O)CC3)cc(c2)CSC[C@@H](C(=O)O)NC(=O)[C@H](Cc2ccccc2)NC(=O)[C@H](CCC(N)=O)NC(=O)[C@H]([C@@H](C)O)NC(=O)[C@@H]2CCCN2C(=O)[C@@H]2CCCN2C1=O [3BP-3916, Bulloc-[Cys(tMeBn(DOTA-AET))-Pro-Pro-Thr-Gln-Phe-Cys]-OH] | < 0.01 µM |  | IC50 (Human recombinant FAP; [4]): 0.01 to 0.0794 µM |
| CCCCCC(=O)N[C@H]1CSCc2cc(cc(CN3CCN(C(=O)CN4CCN(CC(=O)O)CCN(CC(=O)O)CCN(CC(=O)O)CC4)CC3)c2)CSC[C@@H](C(=O)N[C@@H](CC(=O)O)C(N)=O)NC(=O)[C@H](Cc2ccccc2)NC(=O)[C@H](CCC(N)=O)NC(=O)[C@H](C)NC(=O)[C@@H]2CCCN2C(=O)[C@@H]2CCCN2C1=O [3BP-3745, Hex-[Cys(tMeBn(DOTA-PP))-Pro-Pro-Ala-Gln-Phe-Cys]-Asp-NH2] (Hexanoyl-CPPAQFCD-NH2; linker 1-7 via X13) | 0.1 to 0.794 µM | 0.1 to 0.794 µM |  |
| CCCCCC(=O)N[C@H]1CSCc2cccc(c2)CSC[C@@H](C(N)=O)NC(=O)CN(Cc2ccccc2)C(=O)[C@H](CCC(=O)O)NC(=O)[C@H]([C@@H](C)O)NC(=O)[C@@H]2CCCN2C(=O)[C@@H]2CCCN2C1=O [3BP-3360, Hex-[Cys(3MeBn)-Pro-Pro-Thr-Glu-Nphe-Cys]-NH2] (Hexanoyl-CPPTE[Nphe]C-NH2; linker 1-7 via mXylylene) | > 1 µM | > 1 µM |  |
| C[C@@H](O)[C@@H]1NC(=O)[C@@H]2CCCN2C(=O)[C@@H]2CCCN2C(=O)[C@@H](NC(=O)CCCN)CSCc2cccc(c2)CSC[C@@H](C(N)=O)NC(=O)[C@H](Cc2ccccc2)NC(=O)[C@H](CCC(N)=O)NC1=O [3BP-3761, H-Gab-[Cys(3MeBn)-Pro-Pro-Thr-Gln-Phe-Cys]-NH2] | > 1 µM | > 1 µM |  |
